Experimental data: patent US20100160454A1, “ANTIMICROBIAL AGENTS, COMPOSITIONS AND PRODUCTS CONTAINING THE SAME, AND METHODS OF USING THE COMPOSITIONS AND PRODUCTS” (Eastman Chemical Company, priority 2008, published 2010)

What was measured:
Format in all cases: cell-based
[1] = tested on: Malassezia furfur (ATCC 96809); experiment: Challenge testing against pathogenic fungi, growth rating in broth tubes; set-up: key: 0: No visible growth; 1: Some growth in tube; 2: Moderate growth in tube; 3: Good growth in tube; 4: Extreme growth in tube
Protocol: (§1) Both Microsporum canis and Trichophyton rubrum were grown on Sabouraud dextrose broth, while Malassezia fufur was grown in Sabouraud dextrose broth supplemented with 2% (v/v) of olive oil and 0.2% (v/v) of Tween™ 80; incubation was at 22°±2° C. under continuous agitation by stirring for 10 days. The organisms were grown to a density of between 1.0×10^3 to 1.0×10^4 cfu/g. The actual inoculation cell density of these challenges were determined by diluting in sterile buffer water and (spread-plate method) plating for enumeration.
(§2) Challenge organisms were used to inoculate tubes of 1,4-CHDM-D90 test concentrations prepared in Sabouraud dextrose broth (or Sabouraud dextrose broth supplemented with olive oil-Tween™ 80 with M. furfur). The inoculations were in the amount of 1.5 mL aliquots of each culture with static incubation at 22±2° C. Subcultures were made at 3-, 14- and 30-day increments. All challenges were conducted in triplicate. In the case of M. canis, the growth response was assessed by the visual presence/absence of growth in the tubes; in the case of T. rubrum, a respiratory (redox) dye (0.2% w/v aqueous INT solution: 2-[4-iodophenyl)-3-4-nitrophenyl]-5-phenyl tetrazolium chloride) was added to the tubes, turning red if the organism was viable; and, finally, in the case of M. furfur, the growth response was assessed based upon pellicle formation in the tubes at the meniscus. The test formulations and challenge test results, as well as 30-day MICs (Minimum Inhibitory Concentration), are in Tables 7-9 for the three organisms using the following growth rating system:
(§3) • 0: No visible growth • 1: Some growth in tube • 2: Moderate growth in tube • 3: Good growth in tube • 4: Extreme growth in tube

[2] = tested on: Trichophyton rubrum (ATCC 10218); experiment: as above; set-up: key: 0: No visible growth; 1: Some growth in tube; 2: Moderate growth in tube; 3: Good growth in tube; 4: Extreme growth in tube
Protocol: as §1, §2, §3

[3] = tested on: Microsporum canis (ATTC 9084); experiment: as above; set-up: key: 0: No visible growth; 1: Some growth in tube; 2: Moderate growth in tube; 3: Good growth in tube; 4: Extreme growth in tube
Protocol: as §1, §2, §3

[4] = tested on: Burkholderia cepacia ATCC 25416; experiment: Determination of MIC and MLC in test broth; details: Burkholderia cepacia ATCC 25416, 30-day subculture
Protocol: (§4) Two antimicrobial endpoints were investigated. The minimum inhibitory concentration (MIC), which identifies the lowest concentration of test material at which growth for a specific organism is inhibited (by a minimum of 3 log units), reflects “biostatic activity”. The minimum lethal concentration (MLC), or lowest concentration that kills the organism and at which subculturing with growth is not possible, reflects “biocidal activity”. 1,4-CHDM and propylene glycol (PG) were added to previously sterilized screw-cap glass tubes and diluted with Peptone Water Broth with 2 wt % Dextrose (=test broth) to the following dilutions (weight percent): 0.05, 0.075, 0.125, 0.25, 0.5, 0.75, 1.25, 2.5, 5.0, 7.5, 10.0, 15.0, 20.0.
(§5) Each of 12 sets of the above test tubes were challenged with specific organisms (see Table 5) to produce a contamination of between 1.0×10^5 cfu/g and 1.0×10^6 cfu/g in the test broth to which no 1,4-CHDM or propylene glycol had been added. These challenge organisms were prepared in TSB broth, allowed to grow for 72 hours at 35° C.+/−2° C., centrifuged at 2500 rpm for 5 minutes, and the supernatant broth was removed. The microbial pellet was then re-diluted with sterile buffered water to a turbidity that matched previous 1.0×10^6 cfu/g concentrations of that organism's specific growth curve. This challenge was repeated on day 3. Plate counts of both challenges enumerated to within 1.0×10^5+/−5,000 cfu/g after 7 days incubation at 35° C.+/−2° C.
(§6) These tubes were mixed well by inversion (minimum of 25 inversions) and incubated at 35° C.+/−2° C. The tubes were inverted again (minimum of 25 times) on the third and seventh day of incubation and prior to each subculture.
(§7) These subcultures were incubated under optimal conditions and nutrition for no less than 5 days. Subcultures of 0.1 ml, undiluted and diluted 1:10, 1:100, . . . , and 1:10,000, were transferred to plates using the spread plate method onto Plate Count Agar; and SAB Dextrose Agar in addition for the Candida and Aspergillus species; and incubated as follows: 35° C.+/−2° C. for the Plate Count Agar and 22° C.+/−2° C. for the SAB Dextrose plates of Candida albicans and Aspergillus niger. Negative results were not reported before 7 days incubation and counts were performed after no less than 5 days incubation. Counts of Candida and Aspergillus species were made on the agar representing the highest count observed, usually the SAB Dextrose.

Streptococcus pyogenes = experiment: Determination of MIC and MLC in test broth; details: 30-day subculture
Protocol: as §4, §5, §6, §7

[5] = tested on: Escherichia coli ATCC 25922; experiment: Determination of MIC and MLC in test broth; details: Escherichia coli ATCC 25922, 30-day subculture
Protocol: as §4, §5, §6, §7

[6] = tested on: Bacillus subtilis ATCC 6633; experiment: Determination of MIC and MLC in test broth; details: Bacillus subtilis ATCC 6633, 30-day subculture
Protocol: as §4, §5, §6, §7

[7] = tested on: Penicillium notatum ATCC 36740; experiment: Determination of MIC and MLC in test broth; details: Penicillium notatum ATCC 36740, 30-day subculture
Protocol: as §4, §5, §6, §7

Structure (SMILES): OCC1CCC(CO)CC1 (centres unmarked) [1,4-CHDM, 1,4-cyclohexanedimethanol]
- M. furfur growth rating, 3 day ([1]; 0.5% weight/volume): 0
- M. furfur growth rating, 14 day ([1]; 0.5% weight/volume): 1
- M. furfur growth rating, 30 day ([1]; 0.5% weight/volume): 2
- M. furfur growth rating, 3 day ([1]; 1.25% weight/volume): 0
- M. furfur growth rating, 14 day ([1]; 1.25% weight/volume): 0
- M. furfur growth rating, 30 day ([1]; 1.25% weight/volume): 0
- M. furfur growth rating, 3 day ([1]; 2.5% weight/volume): 0
- M. furfur growth rating, 14 day ([1]; 2.5% weight/volume): 0
- M. furfur growth rating, 30 day ([1]; 2.5% weight/volume): 0
- M. furfur growth rating, 3 day ([1]; 5.0% weight/volume): 0
- M. furfur growth rating, 14 day ([1]; 5.0% weight/volume): 0
- M. furfur growth rating, 30 day ([1]; 5.0% weight/volume): 0
- T. rubrum growth rating, 3 day ([2]; 0.5% weight/volume): 1
- T. rubrum growth rating, 14 day ([2]; 0.5% weight/volume): 1
- T. rubrum growth rating, 30 day ([2]; 0.5% weight/volume): 1
- T. rubrum growth rating, 3 day ([2]; 1.25% weight/volume): 0
- T. rubrum growth rating, 14 day ([2]; 1.25% weight/volume): 0
- T. rubrum growth rating, 30 day ([2]; 1.25% weight/volume): 0
- T. rubrum growth rating, 3 day ([2]; 2.5% weight/volume): 0
- T. rubrum growth rating, 14 day ([2]; 2.5% weight/volume): 0
- T. rubrum growth rating, 30 day ([2]; 2.5% weight/volume): 0
- T. rubrum growth rating, 3 day ([2]; 5.0% weight/volume): 1
- T. rubrum growth rating, 14 day ([2]; 5.0% weight/volume): 0
- T. rubrum growth rating, 30 day ([2]; 5.0% weight/volume): 0
- M. canis growth rating, 3 day ([3]; 0.5% weight/volume): 2
- M. canis growth rating, 14 day ([3]; 0.5% weight/volume): 1
- M. canis growth rating, 30 day ([3]; 0.5% weight/volume): 1
- M. canis growth rating, 3 day ([3]; 1.25% weight/volume): 2
- M. canis growth rating, 14 day ([3]; 1.25% weight/volume): 1
- M. canis growth rating, 30 day ([3]; 1.25% weight/volume): 1
- M. canis growth rating, 3 day ([3]; 2.5% weight/volume): 2
- M. canis growth rating, 14 day ([3]; 2.5% weight/volume): 0
- M. canis growth rating, 30 day ([3]; 2.5% weight/volume): 0
- M. canis growth rating, 3 day ([3]; 5.0% weight/volume): 0
- M. canis growth rating, 14 day ([3]; 5.0% weight/volume): 0
- M. canis growth rating, 30 day ([3]; 5.0% weight/volume): 0
- MIC 30 DAYS [4]: 1.25 wt %
- MLC 30 DAYS [4]: 20 wt %
- MIC 30 DAYS (Streptococcus pyogenes): 2.5 wt %
- MLC 30 DAYS (Streptococcus pyogenes): 20 wt %
- MIC 30 DAYS [5]: 2.5 wt %
- MLC 30 DAYS [5]: >20 wt %
- MIC 30 DAYS [6]: 2.5 wt %
- MLC 30 DAYS [6]: >20 wt %
- MIC 30 DAYS [7]: 5 wt %
- MLC 30 DAYS [7]: >20 wt %

Structure (SMILES): CC(O)CO (centres unmarked) [PG, propylene glycol]
- M. furfur growth rating, 3 day ([1]; 0.5% weight/volume): 0
- M. furfur growth rating, 14 day ([1]; 0.5% weight/volume): 3
- M. furfur growth rating, 30 day ([1]; 0.5% weight/volume): 3
- M. furfur growth rating, 3 day ([1]; 1.25% weight/volume): 0
- M. furfur growth rating, 14 day ([1]; 1.25% weight/volume): 3
- M. furfur growth rating, 30 day ([1]; 1.25% weight/volume): 3
- M. furfur growth rating, 3 day ([1]; 2.5% weight/volume): 0
- M. furfur growth rating, 14 day ([1]; 2.5% weight/volume): 3
- M. furfur growth rating, 30 day ([1]; 2.5% weight/volume): 3
- M. furfur growth rating, 3 day ([1]; 5.0% weight/volume): 0
- M. furfur growth rating, 14 day ([1]; 5.0% weight/volume): 0
- M. furfur growth rating, 30 day ([1]; 5.0% weight/volume): 3
- T. rubrum growth rating, 3 day ([2]; 0.5% weight/volume): 0
- T. rubrum growth rating, 14 day ([2]; 0.5% weight/volume): 1
- T. rubrum growth rating, 30 day ([2]; 0.5% weight/volume): 1
- T. rubrum growth rating, 3 day ([2]; 1.25% weight/volume): 1
- T. rubrum growth rating, 14 day ([2]; 1.25% weight/volume): 0
- T. rubrum growth rating, 30 day ([2]; 1.25% weight/volume): 1
- T. rubrum growth rating, 3 day ([2]; 2.5% weight/volume): 1
- T. rubrum growth rating, 14 day ([2]; 2.5% weight/volume): 0
- T. rubrum growth rating, 30 day ([2]; 2.5% weight/volume): 1
- T. rubrum growth rating, 3 day ([2]; 5.0% weight/volume): 1
- T. rubrum growth rating, 14 day ([2]; 5.0% weight/volume): 0
- T. rubrum growth rating, 30 day ([2]; 5.0% weight/volume): 1
- M. canis growth rating, 3 day ([3]; 0.5% weight/volume): 2
- M. canis growth rating, 14 day ([3]; 0.5% weight/volume): 1
- M. canis growth rating, 30 day ([3]; 0.5% weight/volume): 2
- M. canis growth rating, 3 day ([3]; 1.25% weight/volume): 2
- M. canis growth rating, 14 day ([3]; 1.25% weight/volume): 1
- M. canis growth rating, 30 day ([3]; 1.25% weight/volume): 1
- M. canis growth rating, 3 day ([3]; 2.5% weight/volume): 1
- M. canis growth rating, 14 day ([3]; 2.5% weight/volume): 1
- M. canis growth rating, 30 day ([3]; 2.5% weight/volume): 2
- M. canis growth rating, 3 day ([3]; 5.0% weight/volume): 1
- M. canis growth rating, 14 day ([3]; 5.0% weight/volume): 1
- M. canis growth rating, 30 day ([3]; 5.0% weight/volume): 2
- MIC 30 DAYS [4]: 10 wt %
- MLC 30 DAYS [4]: >20 wt %
- MIC 30 DAYS (Streptococcus pyogenes): 20 wt %
- MLC 30 DAYS (Streptococcus pyogenes): >20 wt %
- MIC 30 DAYS [5]: 10 wt %
- MLC 30 DAYS [5]: >20 wt %
- MIC 30 DAYS [6]: 10 wt %
- MLC 30 DAYS [6]: >20 wt %
- MIC 30 DAYS [7]: >20 wt %
- MLC 30 DAYS [7]: >20 wt %
